Source: the NIST ThermoML archive (doi:10.1021/je700754k)
± gives the expanded uncertainty stated by the source.

How the values were obtained:
[1] = xn = mol fraction of the nth substance listed; conditions: 101 kPa, Liquid
[2] = excess molar enthalpy (molar enthalpy of mixing); xn = mol fraction of the nth substance listed; conditions: 303.15 K, 101 kPa, Liquid, Calvet calorimetry

CCCCn1cc[n+](C)c1.COS(=O)(=O)[O-] [1-butyl-3-methylimidazolium methyl sulfate] + CCO
mass density [kg/m3], [1]
Conditions	293.15 K	303.15 K	313.15 K	323.15 K
x1 = 0.0459	854.75 ± 0.74	846.48 ± 0.76	838.14 ± 0.79	829.69 ± 0.82
x1 = 0.0987	913.25 ± 0.56	905.23 ± 0.59	897.17 ± 0.61	889.06 ± 0.64
x1 = 0.142	952 ± 0.46	944.14 ± 0.48	936.26 ± 0.5	928.36 ± 0.52
x1 = 0.1905	988.2 ± 0.38	980.49 ± 0.4	972.79 ± 0.41	965.08 ± 0.43
x1 = 0.2357	1016.76 ± 0.39	1009.19 ± 0.38	1001.63 ± 0.36	994.07 ± 0.37
x1 = 0.2733	1037.27 ± 0.44	1029.8 ± 0.42	1022.32 ± 0.4	1014.88 ± 0.39
x1 = 0.3516	1073.29 ± 0.53	1065.97 ± 0.51	1058.67 ± 0.49	1051.41 ± 0.47
x1 = 0.4381	1104.9 ± 0.63	1097.71 ± 0.6	1090.57 ± 0.58	1083.48 ± 0.56
x1 = 0.5335	1132.61 ± 0.7	1125.56 ± 0.68	1118.55 ± 0.66	1111.6 ± 0.64
x1 = 0.5712	1141.96 ± 0.73	1134.95 ± 0.7	1127.99 ± 0.68	1121.09 ± 0.66
x1 = 0.6742	1163.83 ± 0.79	1156.95 ± 0.77	1150.1 ± 0.74	1143.31 ± 0.72
x1 = 0.7665	1180.16 ± 0.83	1173.37 ± 0.81	1166.61 ± 0.79	1159.9 ± 0.77
x1 = 0.8482	1192.27 ± 0.87	1185.55 ± 0.85	1178.85 ± 0.82	1172.21 ± 0.8
x1 = 0.9248	1202.35 ± 0.9	1195.72 ± 0.87	1189.08 ± 0.85	1182.49 ± 0.83
x1 = 1	1211.17 ± 0.92	1204.48 ± 0.9	1197.92 ± 0.88	1191.39 ± 0.86

[2]
Conditions	excess molar enthalpy [kJ/mol]
x1 = 0.016	0.211 ± 0.017
x1 = 0.0338	0.368 ± 0.03
x1 = 0.1032	0.862 ± 0.069
x1 = 0.1897	1.16 ± 0.093
x1 = 0.2821	1.32 ± 0.11
x1 = 0.3379	1.28 ± 0.1
x1 = 0.5068	1.07 ± 0.086
x1 = 0.5946	0.958 ± 0.077
x1 = 0.7119	0.696 ± 0.056
x1 = 0.7889	0.51 ± 0.041
x1 = 0.9083	0.22 ± 0.018

C[N+](=O)[O-] [nitromethane] + CCCCn1cc[n+](C)c1.COS(=O)(=O)[O-]
[1], x2 = 0
Conditions	mass density [kg/m3]
293.15 K	1137.92 ± 1.9
303.15 K	1124.32 ± 1.8
313.15 K	1110.62 ± 1.7
323.15 K	1096.82 ± 1.6

CCCCn1cc[n+](C)c1.F[B-](F)(F)F [1-butyl-3-methylimidazolium tetrafluoroborate] + C[N+](=O)[O-]
[1], x1 = 1
Conditions	mass density [kg/m3]
293.15 K	1204.99 ± 1.8
303.15 K	1197.89 ± 1.8
313.15 K	1190.81 ± 1.7
323.15 K	1183.78 ± 1.7

CCCCn1cc[n+](C)c1.F[B-](F)(F)F [1-butyl-3-methylimidazolium tetrafluoroborate] + CCO
mass density [kg/m3], [1]
Conditions	293.15 K	303.15 K	313.15 K	323.15 K
x1 = 0.0517	854.59 ± 0.74	846.27 ± 0.76	837.83 ± 0.79	829.27 ± 0.82
x1 = 0.0918	895.67 ± 0.62	887.54 ± 0.64	879.27 ± 0.67	870.9 ± 0.69
x1 = 0.1479	943.11 ± 0.48	935.12 ± 0.5	927.02 ± 0.52	918.84 ± 0.55
x1 = 0.1995	980.07 ± 0.4	972.15 ± 0.41	964.15 ± 0.43	956.11 ± 0.45
x1 = 0.2518	1011.33 ± 0.38	1003.46 ± 0.36	995.56 ± 0.36	987.64 ± 0.38
x1 = 0.3228	1046.79 ± 0.46	1039.01 ± 0.44	1031.22 ± 0.42	1023.46 ± 0.41
x1 = 0.4219	1085.81 ± 0.57	1078.14 ± 0.54	1070.51 ± 0.52	1062.91 ± 0.5
x1 = 0.5356	1120.88 ± 0.67	1113.35 ± 0.64	1105.88 ± 0.62	1098.46 ± 0.6
x1 = 0.6244	1142.66 ± 0.72	1135.23 ± 0.7	1127.86 ± 0.68	1120.54 ± 0.66
x1 = 0.709	1160.24 ± 0.77	1152.89 ± 0.75	1145.59 ± 0.73	1138.37 ± 0.7
x1 = 0.8295	1181.36 ± 0.83	1174.12 ± 0.81	1166.93 ± 0.79	1159.8 ± 0.77
x1 = 0.9327	1196.33 ± 0.88	1189.16 ± 0.85	1182.04 ± 0.83	1174.97 ± 0.81
x1 = 1	1204.93 ± 0.9	1197.83 ± 0.88	1190.74 ± 0.86	1183.72 ± 0.83

[2]
Conditions	excess molar enthalpy [kJ/mol]
x1 = 0.0201	0.36 ± 0.029
x1 = 0.0573	0.852 ± 0.068
x1 = 0.1005	1.28 ± 0.1
x1 = 0.1962	1.96 ± 0.16
x1 = 0.3371	2.47 ± 0.2
x1 = 0.4225	2.61 ± 0.21
x1 = 0.5001	2.51 ± 0.2
x1 = 0.5874	2.28 ± 0.18
x1 = 0.6333	2.05 ± 0.17
x1 = 0.7422	1.67 ± 0.13
x1 = 0.8291	1.16 ± 0.093
x1 = 0.9257	0.625 ± 0.05

C[N+](=O)[O-] [nitromethane] + CCCCn1cc[n+](C)c1.F[B-](F)(F)F
mass density [kg/m3], [1]
Conditions	293.15 K	303.15 K	313.15 K	323.15 K
x2 = 0	1137.98 ± 1.9	1124.39 ± 1.8	1110.68 ± 1.7	1096.88 ± 1.6
x2 = 0.0512	1154.27 ± 2	1142.08 ± 1.9	1129.84 ± 1.8	1117.57 ± 1.7
x2 = 0.0991	1164.29 ± 2	1152.98 ± 1.9	1141.66 ± 1.9	1130.32 ± 1.8
x2 = 0.1392	1170.56 ± 2	1159.82 ± 2	1149.08 ± 1.9	1138.35 ± 1.8
x2 = 0.2026	1178.15 ± 2	1168.09 ± 2	1158.06 ± 1.9	1148.05 ± 1.8
x2 = 0.2986	1186.08 ± 2	1176.78 ± 1.9	1167.52 ± 1.9	1158.31 ± 1.8
x2 = 0.3565	1189.62 ± 2	1180.67 ± 1.9	1171.76 ± 1.9	1162.9 ± 1.8
x2 = 0.3972	1191.64 ± 2	1182.9 ± 1.9	1174.2 ± 1.9	1165.55 ± 1.8
x2 = 0.4553	1194.13 ± 1.9	1185.65 ± 1.9	1177.21 ± 1.8	1168.83 ± 1.8
x2 = 0.5231	1196.42 ± 1.9	1188.18 ± 1.9	1179.99 ± 1.8	1171.87 ± 1.8
x2 = 0.5949	1198.48 ± 1.9	1190.48 ± 1.8	1182.53 ± 1.8	1174.65 ± 1.7
x2 = 0.6863	1200.57 ± 1.9	1192.82 ± 1.8	1185.11 ± 1.8	1177.48 ± 1.7
x2 = 0.8073	1202.6 ± 1.8	1195.13 ± 1.8	1187.69 ± 1.7	1180.33 ± 1.7
x2 = 0.8634	1203.37 ± 1.8	1196.01 ± 1.8	1188.69 ± 1.7	1181.43 ± 1.7

[2]
Conditions	excess molar enthalpy [kJ/mol]
x2 = 0.0016	-0.007 ± 0.001
x2 = 0.0273	-0.092 ± 0.008
x2 = 0.0558	-0.182 ± 0.015
x2 = 0.1131	-0.287 ± 0.023
x2 = 0.202	-0.406 ± 0.033
x2 = 0.3621	-0.487 ± 0.039
x2 = 0.5067	-0.452 ± 0.036
x2 = 0.6037	-0.409 ± 0.033
x2 = 0.7226	-0.316 ± 0.025
x2 = 0.8827	-0.159 ± 0.013

CCCCn1cc[n+](C)c1.COS(=O)(=O)[O-] [1-butyl-3-methylimidazolium methyl sulfate] + C[N+](=O)[O-]
mass density [kg/m3], [1]
Conditions	293.15 K	303.15 K	313.15 K	323.15 K
x1 = 0.0398	1152.79 ± 2	1140.52 ± 1.9	1128.19 ± 1.8	1115.81 ± 1.7
x1 = 0.1021	1167.13 ± 2	1156.18 ± 2	1145.2 ± 1.9	1134.22 ± 1.8
x1 = 0.1433	1174.03 ± 2.1	1163.71 ± 2	1153.39 ± 1.9	1143.09 ± 1.8
x1 = 0.1988	1181.04 ± 2.1	1171.38 ± 2	1161.73 ± 1.9	1152.11 ± 1.9
x1 = 0.2444	1185.56 ± 2	1176.34 ± 2	1167.13 ± 1.9	1157.97 ± 1.9
x1 = 0.2998	1189.98 ± 2	1181.18 ± 2	1172.41 ± 1.9	1163.68 ± 1.9
x1 = 0.3979	1195.81 ± 2	1187.57 ± 1.9	1179.37 ± 1.9	1171.23 ± 1.8
x1 = 0.4786	1199.41 ± 2	1191.53 ± 1.9	1183.69 ± 1.9	1175.91 ± 1.8
x1 = 0.5652	1202.31 ± 1.9	1194.73 ± 1.9	1187.19 ± 1.8	1179.71 ± 1.8
x1 = 0.7127	1206.24 ± 1.9	1199.08 ± 1.8	1191.95 ± 1.8	1184.88 ± 1.7
x1 = 0.8212	1208.19 ± 1.9	1201.28 ± 1.8	1194.38 ± 1.8	1187.53 ± 1.7
x1 = 0.8546	1208.81 ± 1.9	1201.97 ± 1.8	1195.14 ± 1.8	1188.36 ± 1.7
x1 = 1	1211.16 ± 1.8	1204.45 ± 1.8	1197.88 ± 1.8	1191.35 ± 1.7

[2]
Conditions	excess molar enthalpy [kJ/mol]
x1 = 0.0804	-0.159 ± 0.013
x1 = 0.1617	-0.285 ± 0.023
x1 = 0.2832	-0.396 ± 0.032
x1 = 0.394	-0.466 ± 0.037
x1 = 0.4351	-0.451 ± 0.036
x1 = 0.5566	-0.418 ± 0.034
x1 = 0.6675	-0.37 ± 0.03
x1 = 0.7671	-0.273 ± 0.022
x1 = 0.8761	-0.13 ± 0.011

CCO [ethanol] + CCCCn1cc[n+](C)c1.F[B-](F)(F)F
[1], x2 = 0
Conditions	mass density [kg/m3]
293.15 K	789.38 ± 0.94
303.15 K	780.78 ± 0.96
313.15 K	772.04 ± 0.99
323.15 K	763.14 ± 1

CCO [ethanol] + CCCCn1cc[n+](C)c1.COS(=O)(=O)[O-]
[1], x2 = 0
Conditions	mass density [kg/m3]
293.15 K	789.53 ± 0.94
303.15 K	780.94 ± 0.96
313.15 K	772.2 ± 0.99
323.15 K	763.28 ± 1
